Patent US9801961B2, “2-phenylimidazo[1,2-a]pyrimidines as imaging agents” (Hoffmann-La Roche Inc., priority 2013, dated 2017)

tested on: native tau aggregates; assay: TAU radioligand in vitro displacement assay ([3H]T808 autoradiography on human AD brain sections); type: binding; conditions: compound 10 nM, radioligand [3H]T808 10 nM, 50 mM Tris pH 7.4, room temperature, 30 min
Procedure: TAU Radioligand-In-Vitro Displacement Assay
This in vitro binding assay assesses the affinity of compounds for native tau aggregates. The compounds are co-incubated with the well-established tau specific radioligand [^3H]T808 and the compound's displacement potency of [^3H]T808 binding is determined by in vitro autoradiography using human Alzheimer's disease (AD) brain sections (FIG. 1).
AD human brains are purchased from Banner Sun Health Research Institute (Sun City, Ariz., USA). Pathological diagnosis of AD is made according to standard NIA-Reagan Institute criteria based on neuropathological data. The radioligand [^3H]T808 was synthesized in-house ([^3H]-2-[4-(2-Fluoro-ethyl)-piperidin-1-yl]-benzo[4,5]imidazo[1,2-a]pyrimidine, radiochemical purity 99.0%). As a reference cold T808 is used (2-[4-(2-Fluoro-ethyl)-piperidin-1-yl]-benzo[4,5]imidazo[1,2-a]pyrimidine). For the autoradiography FujiFilm Imaging Plates (BAS-IP TR 2025) are exposed to the sections and read with a FujiFilm IP reader (BAS-5000).
Ten μm thick human AD brain sections are generated with a cryostat (Leica CM3050) at −17° C. chamber temperature and −15° C. object temperature. Sections are transferred to Histobond+microscope slides (Marienfeld Laboratory Glasware). After drying for 3 hours at room temperature the sections are stored at −20° C. The sections are incubated with the radioligand (10 nM) and the respective cold compound (at various concentrations) in 50 mM Tris buffer, pH 7.4 at room temperature for 30 min. After washing 3×10 min at 4° C. in 50 mM Tris buffer, pH 7.4 and 3 quick dips in H2O dist. at 4° C. the sections are dried at 4° C. for 3 h. The sections are placed in a FujiFilm Cassette (BAS 2025), exposed with an Imaging Plate for five days and afterwards scanned with a resolution of […].
The signal intensity (Dens—PSL/mm2) in the region of interest (ROI) of the autoradiogram is quantified with the software MCID analysis (version 7.0, Imaging Research Inc.). The specific binding (SB) of [^3H]T808 binding in absence or in presence of a compound is calculated by subtracting the non-specific binding signal in the white matter, thus yielding SB[3H]T808 only and SBcompund. The % displacement by the various compounds is calculated as following: % displacement=100−(SBcompund/SB[3H]T808 only)*100.
In each experiment cold T808 is used as a positive internal control. Co-incubation of equimolar amounts of hot and cold T808 is expected to reduce specific binding by approximately 50%.

| % displacement of [3H]T808 (10 nM) at 10 nM [%] | Compound |
| --- | --- |
| 15 | Cc1ccc(-c2cn3ccc(N4CCC(CCF)CC4)nc3n2)cc1 [Example 60, 7-[4-(2-Fluoroethyl)piperidin-1-yl]-2-(4-methylphenyl)imidazo[1,2-a]pyrimidine] |
| 33 | CNc1ccn2cc(-c3cccc(OCF)c3)nc2n1 [Example 131, 2-(3-(Fluoromethoxy)phenyl)-N-methylimidazo[1,2-a]pyrimidin-7-amine] |
| 21 | CNc1ccn2cc(-c3ccc(C)c(OC)c3)nc2n1 [Example 143, 2-(3-Methoxy-4-methylphenyl)-N-methylimidazo[1,2-a]pyrimidin-7-amine] |
| 20 | FCCOc1ccc(-c2cn3ccc(NC4CC4)nc3n2)cc1 [Example 138, N-Cyclopropyl-2-(4-(2-fluoroethoxy)phenyl)imidazo[1,2-a]pyrimidin-7-amine] |
| 10 | FCCC1CCN(c2ccn3cc(-c4ccc(N5CCOCC5)cc4)nc3n2)CC1 [Example 61, 4-[4-[7-[4-(2-Fluoroethyl)piperidin-1-yl]imidazo[1,2-a]pyrimidin-2-yl]phenyl]morpholine] |
| 37 | CN(C)c1ccn2cc(-c3ccc4c(c3)OCCO4)nc2n1 [Example 38, 2-(2,3-Dihydro-1,4-benzodioxin-6-yl)-N,N-dimethylimidazo[1,2-a]pyrimidin-7-amine] |
| 29 | COc1ccc(-c2cn3ccc(N4CCCC4)nc3n2)cc1 [Example 43, 2-(4-Methoxyphenyl)-7-pyrrolidin-1-ylimidazo[1,2-a]pyrimidine] |
| 41 | CNc1ccn2cc(-c3ccc(OC)cc3)nc2n1 [Example 83, 2-(4-Methoxyphenyl)-N-methylimidazo[1,2-a]pyrimidin-7-amine] |
| 9 | FCCC1CCN(c2ccn3cc(-c4ccc5c(c4)OCO5)nc3n2)CC1 [Example 57, 2-(1,3-Benzodioxol-5-yl)-7-[4-(2-fluoroethyl)piperidin-1-yl]imidazo[1,2-a]pyrimidine] |
| 14 | FCCC1CCN(c2ccn3cc(-c4ccccc4)nc3n2)CC1 [Example 54, 7-[4-(2-Fluoroethyl)piperidin-1-yl]-2-phenylimidazo[1,2-a]pyrimidine] |
| 22 | Fc1ccc(-c2cn3ccc(N4CCC4)nc3n2)cc1 [Example 119, 7-(Azetidin-1-yl)-2-(4-fluorophenyl)imidazo[1,2-a]pyrimidine] |
| 20 | COc1ccc(-c2cn3ccc(N4CC(C)C4)nc3n2)cc1 [Example 89, 2-(4-Methoxyphenyl)-7-(3-methylazetidin-1-yl)imidazo[1,2-a]pyrimidine] |
| 27 | FCOc1cccc(-c2cn3ccc(N4CCCC4)nc3n2)c1 [Example 16, 2-[3-(Fluoromethoxy)phenyl]-7-pyrrolidin-1-ylimidazo[1,2-a]pyrimidine] |
| 12 | FC1CCN(c2ccn3cc(-c4nc5ccccc5s4)nc3n2)CC1 [Example 79, 2-[7-(4-Fluoropiperidin-1-yl)imidazo[1,2-a]pyrimidin-2-yl]-1,3-benzothiazole] |
| 40 | CNc1ccn2cc(-c3cccc(OC)c3)nc2n1 [Example 117, 2-(3-Methoxyphenyl)-N-methylimidazo[1,2-a]pyrimidin-7-amine] |
| 17 | COc1ccc(-c2cn3ccc(N4CCOCC4)nc3n2)cc1OC [Example 27, 4-[2-(3,4-Dimethoxyphenyl)imidazo[1,2-a]pyrimidin-7-yl]morpholine] |

| % displacement of [3H]T808 (10 nM) at 10 nM [%] | Compound |
| --- | --- |
| 14 | Cc1cccc(-c2cn3ccc(N4CCCCC4)nc3n2)c1 [Example 52, 2-(3-Methylphenyl)-7-piperidin-1-ylimidazo[1,2-a]pyrimidine] |
| 18 | CNc1ccn2cc(-c3ccc(O)c(OC)c3)nc2n1 [Example 98, 2-Methoxy-4-[7-(methylamino)imidazo[1,2-a]pyrimidin-2-yl]phenol] |
| 10 | Cc1cccc(-c2cn3ccc(N4CCC(CCF)CC4)nc3n2)c1 [Example 59, 7-[4-(2-Fluoroethyl)piperidin-1-yl]-2-(3-methylphenyl)imidazo[1,2-a]pyrimidine] |
| 16 | COc1ccc(-c2cn3ccc(N4CC(OC)C4)nc3n2)cc1 [Example 81, 7-(3-Methoxyazetidin-1-yl)-2-(4-methoxyphenyl)imidazo[1,2-a]pyrimidine] |
| 20 | COc1cccc(-c2cn3ccc(N4CCCC4)nc3n2)c1 [Example 47, 2-(3-Methoxyphenyl)-7-pyrrolidin-1-ylimidazo[1,2-a]pyrimidine] |
| 32 | CNc1ccn2cc(-c3ccc(O)cc3)nc2n1 [Example 122, 4-(7-(Methylamino)imidazo[1,2-a]pyrimidin-2-yl)phenol] |
| 21 | CNc1ccn2cc(-c3ccc(OC)c(OC)c3)nc2n1 [Example 142, 2-(3,4-Dimethoxyphenyl)-N-methylimidazo[1,2-a]pyrimidin-7-amine] |
| 18 | FCOc1cccc(-c2cn3ccc(NC4CC4)nc3n2)c1 [Example 137, N-Cyclopropyl-2-(3-(fluoromethoxy)phenyl)imidazo[1,2-a]pyrimidin-7-amine] |
| 38 | Cc1cccc(-c2cn3ccc(N4CCC4)nc3n2)c1 [Example 95, 7-(Azetidin-1-yl)-2-(3-methylphenyl)imidazo[1,2-a]pyrimidine] |
| 43 | COc1ccc(-c2cn3ccc(NC4CC4)nc3n2)cc1 [Example 76, N-Cyclopropyl-2-(4-methoxyphenyl)imidazo[1,2-a]pyrimidin-7-amine] |
| 29 | CN(C)c1ccn2cc(-c3ccc(N4CCOCC4)cc3)nc2n1 [Example 45, N,N-Dimethyl-2-(4-morpholin-4-ylphenyl)imidazo[1,2-a]pyrimidin-7-amine] |
| 8 | Cc1ccc(-c2cn3ccc(N4CCOCC4)nc3n2)cc1 [Example 42, 4-[2-(4-Methylphenyl)imidazo[1,2-a]pyrimidin-7-yl]morpholine] |
| 14 | Oc1cccc(-c2cn3ccc(NC4CC4)nc3n2)c1 [Example 133, 3-(7-(Cyclopropylamino)imidazo[1,2-a]pyrimidin-2-yl)phenol] |
| 15 | CN(C)c1ccc(-c2cn3ccc(N4CCC(F)CC4)nc3n2)cc1 [Example 91, 4-[7-(4-Fluoropiperidin-1-yl)imidazo[1,2-a]pyrimidin-2-yl]-N,N-dimethylaniline] |
| 23 | CNc1ccn2cc(-c3ccc(CO)cc3)nc2n1 [Example 107, [4-[7-(Methylamino)imidazo[1,2-a]pyrimidin-2-yl]phenyl]methanol acetic acid adduct] |

same assay, conditions: compound 1 uM, radioligand [3H]T808 10 nM, 50 mM Tris pH 7.4, room temperature, 30 min

| % displacement of [3H]T808 (10 nM) at 1 uM [%] | Compound |
| --- | --- |
| 72 | FC1CCN(c2ccn3cc(-c4ccc5c(c4)OCCO5)nc3n2)CC1 [Example 8, 2-(2,3-Dihydro-1,4-benzodioxin-6-yl)-7-(4-fluoropiperidin-1-yl)imidazo[1,2-a]pyrimidine] |
| 76 | FCCOc1cccc(-c2cn3ccc(N4CCCC4)nc3n2)c1 [Example 17, 2-[3-(2-Fluoroethoxy)phenyl]-7-pyrrolidin-1-ylimidazo[1,2-a]pyrimidine] |
| 67 | Oc1cccc(-c2cn3ccc(N4CCC(F)CC4)nc3n2)c1 [Example 13, 3-[7-(4-Fluoropiperidin-1-yl)imidazo[1,2-a]pyrimidin-2-yl]phenol] |
| 88 | FCOc1cccc(-c2cn3ccc(N4CCCC4)nc3n2)c1 [Example 16, 2-[3-(Fluoromethoxy)phenyl]-7-pyrrolidin-1-ylimidazo[1,2-a]pyrimidine] |
| 82 | COc1cccc(-c2cn3ccc(N(C)CCF)nc3n2)c1 [Example 22, N-(2-Fluoroethyl)-2-(3-methoxyphenyl)-N-methylimidazo[1,2-a]pyrimidin-7-amine] |
| 50 | Fc1ccccc1-c1cn2ccc(N3CCC(F)CC3)nc2n1 [Example 12, 2-(2-Fluorophenyl)-7-(4-fluoropiperidin-1-yl)imidazo[1,2-a]pyrimidine] |

| Compound | % displacement of [3H]T808 (10 nM) at 1 uM [%] |
| --- | --- |
| COc1cccc(-c2cn3ccc(N4CCN(CCF)CC4)nc3n2)c1.Cl [Example 20, 7-[4-(2-Fluoroethyl)piperazin-1-yl]-2-(3-methoxyphenyl)imidazo[1,2-a]pyrimidine hydrochloride] | 51 |
